Experimental data as given in US11231421B2, “Methods of treating multifocal cancer” (NYMOX CORPORATION, priority 2019, dated 2022).
Where no end group is shown, it is not given here.

Columns and labels:
[1] = system: injected areas; assay: Histology of injected areas after treatment; format: in vivo; settings: up to several weeks after treatment
From the text: (§1) Use of FT is a preferred embodiment. FT is a new molecular entity which in vitro stimulates caspase pathways (activation of caspases 7, 8, and 10, caspase recruitment domains 6, 11, and 14, and DIABLO), tumor necrosis factor pathways (activation of TNF1, TNFSF6, TNFSF8, TNFSF9, CD70 ligands, and TNFRSF19L, TNFRSF25, TRAF2, TRAF3, TRAF4, TRAF6 receptors), and BCL pathways (activation of BIK, HRK, BCL2L10 and BCL3) in prostate glandular epithelial cells, based on tissue culture genetic array data. […] The apoptotic process leads to typical ultrastructural progressive changes of membranous disruption and swelling, progressively deepening nuclear invaginations with eventual membranous bleb formations and cell death and fragmentation into apoptotic bodies.

[2] = system: low grade prostate cancer (Gleason grade 6); assay: Clinical study, Example 6: cancer treatment with new multifocal and an increase in Gleason grade primary pattern; format: in vivo, human; settings: for % Imp.: cancer treatment with new multifocal and an increase in Gleason grade primary pattern, entire prostate: vs control active surveillance
Description: (§2) In a series of clinical studies a total of 146 men with low grade prostate cancer (Gleason grade 6) were treated in the following manner. Patients were randomized and treated with a transrectal intraprostatic single injection of a composition comprising 2.5 mg FT (n=49), or a composition comprising 15 mg FT (n=48), or were subject to control active surveillance (n=49). After the first follow-up biopsy at 45 days post-randomization, 18 patients in the control active surveillance group crossed over to a single administration of a composition in which 10 patients received 2.5 mg FT, and 8 patients received 15 mg FT. Patients were followed for 5 years including biopsies at baseline, 45 days, 18, 36, and 48 months, and urological evaluations with PSA every 6 months. Patients with Gleason grade increase or who elected surgical or radiotherapeutic intervention exited the study and were still included in the data analysis. Percentage of normal biopsies in the baseline focus quadrant and median tumor grade and volume were assessed; progression was measured by clinical and pathological outcomes including Gleason grade, and Gleason grade primary pattern, in the entire prostate sampled as well as for the treated prostate lobe. Interventions associated with Gleason grade increase as well as total incidence for any conventional surgical intervention (e.g., surgery, radiotherapy, and/or chemotherapy) was assessed.

[3] = system: low grade prostate cancer (Gleason grade 6); assay: Clinical study, Example 4: hemi-prostate multifocal cancer with increase in Gleason primary pattern; format: in vivo, human; settings: for % Imp.: hemi-prostate multifocal cancer with increase in Gleason primary pattern: vs control active surveillance
Description: as §2

[4] = system: low grade prostate cancer (Gleason grade 6); assay: Clinical study, Example 1: new multifocal with Gleason upgrade in entire prostate; format: in vivo, human; settings: for % Imp.: new multifocal with Gleason upgrade, entire prostate: vs control active surveillance
Description: as §2

[5] = system: prostate glandular epithelial cells; assay: In vitro tissue culture genetic array and cell effects; format: cell-based
From the text: as §1

[6] = system: low grade prostate cancer (Gleason grade 6); assay: Clinical study, Example 5: cancer treatment with new multifocal with Gleason upgrade; format: in vivo, human; settings: for % Imp.: cancer treatment with new multifocal with Gleason upgrade, entire prostate: vs control active surveillance
Description: as §2

[7] = FT 2.5 mg, <=18 mos from treatment
[8] = FT 2.5 mg, <=36 mos from treatment
[9] = FT 2.5 mg, <=48 mos from treatment
[10] = FT 15 mg, <=18 mos from treatment
[11] = FT 15 mg, <=36 mos from treatment
[12] = FT 15 mg, <=48 mos from treatment
[13] = Pooled FT (2.5 mg and 15 mg), <=18 mos from treatment
[14] = Pooled FT (2.5 mg and 15 mg), <=18 mos
[15] = Pooled FT (2.5 mg and 15 mg), <=36 mos from treatment
[16] = Pooled FT (2.5 mg and 15 mg), <=36 mos
[17] = Pooled FT (2.5 mg and 15 mg), <=48 mos from treatment
[18] = Pooled FT (2.5 mg and 15 mg), <=48 mos
[19] = in vitro, tissue culture genetic array data

fexapotide triflutate (IDQQVLSRIKLEIKRCL; also: trifluoroacetate salt) [FT]
histological changes in injected areas [1]: typical apoptotic changes with positive immunohistochemical staining of markers for apoptosis are found throughout the injected areas | percentage of patients: cancer treatment with new multifocal and an increase in Gleason grade primary pattern, entire prostate [2, 7]: 0 (p = 0.001) % | % Imp.: cancer treatment with new multifocal and an increase in Gleason grade primary pattern, entire prostate ([2]; FT 2.5 mg, <=18 mos): 100% | percentage of patients: cancer treatment with new multifocal and an increase in Gleason grade primary pattern, entire prostate [2, 8]: 0 (p = 0.006) % | % Imp.: cancer treatment with new multifocal and an increase in Gleason grade primary pattern, entire prostate ([2]; FT 2.5 mg, <=36 mos): 100% | percentage of patients: cancer treatment with new multifocal and an increase in Gleason grade primary pattern, entire prostate [2, 9]: 0 (p = 0.0040) % | % Imp.: cancer treatment with new multifocal and an increase in Gleason grade primary pattern, entire prostate ([2]; FT 2.5 mg, <=48 mos): 100% | percentage of patients: cancer treatment with new multifocal and an increase in Gleason grade primary pattern, entire prostate [2, 10]: 2.6 (p = 0.06) % | % Imp.: cancer treatment with new multifocal and an increase in Gleason grade primary pattern, entire prostate ([2]; FT 15 mg, <=18 mos): 83.5% | percentage of patients: cancer treatment with new multifocal and an increase in Gleason grade primary pattern, entire prostate [2, 11]: 3.6 (p = 0.04) % | % Imp.: cancer treatment with new multifocal and an increase in Gleason grade primary pattern, entire prostate ([2]; FT 15 mg, <=36 mos): 84.7% | percentage of patients: cancer treatment with new multifocal and an increase in Gleason grade primary pattern, entire prostate [2, 12]: 4.2 (p = 0.019) % | % Imp.: cancer treatment with new multifocal and an increase in Gleason grade primary pattern, entire prostate ([2]; FT 15 mg, <=48 mos): 86.6% | percentage of patients: cancer treatment with new multifocal and an increase in Gleason grade primary pattern, entire prostate [2, 13]: 1.3 (p = 0.04) % | % Imp.: cancer treatment with new multifocal and an increase in Gleason grade primary pattern, entire prostate [2, 14]: 91.8% | percentage of patients: cancer treatment with new multifocal and an increase in Gleason grade primary pattern, entire prostate [2, 15]: 1.7 (p = 0.002) % | % Imp.: cancer treatment with new multifocal and an increase in Gleason grade primary pattern, entire prostate [2, 16]: 92.8% | percentage of patients: cancer treatment with new multifocal and an increase in Gleason grade primary pattern, entire prostate [2, 17]: 2.1 (p = 0.001) % | % Imp.: cancer treatment with new multifocal and an increase in Gleason grade primary pattern, entire prostate [2, 18]: 93.3% | percentage of patients: hemi-prostate multifocal cancer with increase in Gleason primary pattern [3, 7]: 0 (p = 0.033) % | % Imp.: hemi-prostate multifocal cancer with increase in Gleason primary pattern ([3]; FT 2.5 mg, <=18 mos): 100% | percentage of patients: hemi-prostate multifocal cancer with increase in Gleason primary pattern [3, 8]: 0 (p = 0.018) % | % Imp.: hemi-prostate multifocal cancer with increase in Gleason primary pattern ([3]; FT 2.5 mg, <=36 mos): 100% | percentage of patients: hemi-prostate multifocal cancer with increase in Gleason primary pattern [3, 9]: 0 (p = 0.037) % | % Imp.: hemi-prostate multifocal cancer with increase in Gleason primary pattern ([3]; FT 2.5 mg, <=48 mos): 100% | percentage of patients: hemi-prostate multifocal cancer with increase in Gleason primary pattern [3, 10]: 2.9% | % Imp.: hemi-prostate multifocal cancer with increase in Gleason primary pattern ([3]; FT 15 mg, <=18 mos): 76.8% | percentage of patients: hemi-prostate multifocal cancer with increase in Gleason primary pattern [3, 11]: 4.5% | % Imp.: hemi-prostate multifocal cancer with increase in Gleason primary pattern ([3]; FT 15 mg, <=36 mos): 79% | percentage of patients: hemi-prostate multifocal cancer with increase in Gleason primary pattern [3, 12]: 6.7% | % Imp.: hemi-prostate multifocal cancer with increase in Gleason primary pattern ([3]; FT 15 mg, <=48 mos): 75.5% | percentage of patients: hemi-prostate multifocal cancer with increase in Gleason primary pattern [3, 13]: 1.4 (p = 0.03) % | % Imp.: hemi-prostate multifocal cancer with increase in Gleason primary pattern [3, 14]: 88.8% | percentage of patients: hemi-prostate multifocal cancer with increase in Gleason primary pattern [3, 15]: 2.2 (p = 0.011) % | % Imp.: hemi-prostate multifocal cancer with increase in Gleason primary pattern [3, 16]: 89.7% | percentage of patients: hemi-prostate multifocal cancer with increase in Gleason primary pattern [3, 17]: 3.4 (p = 0.025) % | % Imp.: hemi-prostate multifocal cancer with increase in Gleason primary pattern [3, 18]: 87.5% | percentage of patients: new multifocal with Gleason upgrade, entire prostate [4, 7]: 13.5% | % Imp.: new multifocal with Gleason upgrade, entire prostate ([4]; FT 2.5 mg, <=18 mos): 51.4% | percentage of patients: new multifocal with Gleason upgrade, entire prostate [4, 8]: 23.1% | % Imp.: new multifocal with Gleason upgrade, entire prostate ([4]; FT 2.5 mg, <=36 mos): 47.2% | percentage of patients: new multifocal with Gleason upgrade, entire prostate [4, 9]: 50% | % Imp.: new multifocal with Gleason upgrade, entire prostate ([4]; FT 2.5 mg, <=48 mos): 12.4% | percentage of patients: new multifocal with Gleason upgrade, entire prostate [4, 10]: 5.7 (p = 0.025) % | % Imp.: new multifocal with Gleason upgrade, entire prostate ([4]; FT 15 mg, <=18 mos): 79.5% | percentage of patients: new multifocal with Gleason upgrade, entire prostate [4, 11]: 9.1 (p = 0.13) % | % Imp.: new multifocal with Gleason upgrade, entire prostate ([4]; FT 15 mg, <=36 mos): 79.2% | percentage of patients: new multifocal with Gleason upgrade, entire prostate [4, 12]: 20 (p = 0.039) % | % Imp.: new multifocal with Gleason upgrade, entire prostate ([4]; FT 15 mg, <=48 mos): 65% | percentage of patients: new multifocal with Gleason upgrade, entire prostate [4, 13]: 9.7 (p = 0.044) % | % Imp.: new multifocal with Gleason upgrade, entire prostate [4, 14]: 65.1% | percentage of patients: new multifocal with Gleason upgrade, entire prostate [4, 15]: 16.7 (P = 0.027) % | % Imp.: new multifocal with Gleason upgrade, entire prostate [4, 16]: 61.9% | percentage of patients: new multifocal with Gleason upgrade, entire prostate [4, 17]: 35.5% | % Imp.: new multifocal with Gleason upgrade, entire prostate [4, 18]: 37.8% | cellular effects [5]: selectively causes loss of cell membrane integrity, mitochondrial metabolic arrest, depletion of RNA, DNA lysis and aggregation, and cell fragmentation and cell loss | BCL pathways (activation of BIK, HRK, BCL2L10 and BCL3) [5, 19]: stimulates | caspase pathways (activation of caspases 7, 8, and 10, caspase recruitment domains 6, 11, and 14, and DIABLO) [5, 19]: stimulates | tumor necrosis factor pathways (activation of TNF1, TNFSF6, TNFSF8, TNFSF9, CD70 ligands, and TNFRSF19L, TNFRSF25, TRAF2, TRAF3, TRAF4, TRAF6 receptors) [5, 19]: stimulates | percentage of patients: cancer treatment with new multifocal with Gleason upgrade, entire prostate [6, 7]: 9.8% | % Imp.: cancer treatment with new multifocal with Gleason upgrade, entire prostate ([6]; FT 2.5 mg, <=18 mos): 62.7% | percentage of patients: cancer treatment with new multifocal with Gleason upgrade, entire prostate [6, 8]: 16.7% | % Imp.: cancer treatment with new multifocal with Gleason upgrade, entire prostate ([6]; FT 2.5 mg, <=36 mos): 52.7% | percentage of patients: cancer treatment with new multifocal with Gleason upgrade, entire prostate [6, 9]: 26% | % Imp.: cancer treatment with new multifocal with Gleason upgrade, entire prostate ([6]; FT 2.5 mg, <=48 mos): 48% | percentage of patients: cancer treatment with new multifocal with Gleason upgrade, entire prostate [6, 10]: 5.1 (p = 0.02) % | % Imp.: cancer treatment with new multifocal with Gleason upgrade, entire prostate ([6]; FT 15 mg, <=18 mos): 80.6% | percentage of patients: cancer treatment with new multifocal with Gleason upgrade, entire prostate [6, 11]: 7.1 (p = 0.17) % | % Imp.: cancer treatment with new multifocal with Gleason upgrade, entire prostate ([6]; FT 15 mg, <=36 mos): 79.9% | percentage of patients: cancer treatment with new multifocal with Gleason upgrade, entire prostate [6, 12]: 8.3 (p = 0.003) % | % Imp.: cancer treatment with new multifocal with Gleason upgrade, entire prostate ([6]; FT 15 mg, <=48 mos): 83.4% | percentage of patients: cancer treatment with new multifocal with Gleason upgrade, entire prostate [6, 13]: 7.5 (p = 0.02) % | % Imp.: cancer treatment with new multifocal with Gleason upgrade, entire prostate [6, 14]: 71.5% | percentage of patients: cancer treatment with new multifocal with Gleason upgrade, entire prostate [6, 15]: 12.1 (p = 0.026) % | % Imp.: cancer treatment with new multifocal with Gleason upgrade, entire prostate [6, 16]: 65.7% | percentage of patients: cancer treatment with new multifocal with Gleason upgrade, entire prostate [6, 17]: 17 (p = 0.009) % | % Imp.: cancer treatment with new multifocal with Gleason upgrade, entire prostate [6, 18]: 66%
